The record followed here is ChEMBL document CHEMBL1133954, “The discovery of novel, potent and selective PDE5 inhibitors” (Bioorg Med Chem Lett, 2001).

The target in experiment [1] is cGMP-specific 3',5'-cyclic phosphodiesterase (Homo sapiens, UniProt O76074). Description: Inhibition of PDE5 from human platelets.
Experiment [2] can be described thus: Relative inhibition of PDE1 from bovine heart and PDE5 from human platelets.
Experiment [3] is described as follows: Relative inhibition of PDE2 from rat kidney and PDE5 from human platelets.
Experiment [4] can be described thus: Relative inhibition of PDE6 from bovine retina and PDE5 from human platelets.
Experiment [5] is described as follows: Relative inhibition of PDE4 from rat kidney and PDE5 from human platelets.

A value given as a limit tells only on which side of the number the result lay.

A word on the IC50: it is the concentration that gives 50% inhibition. High values mean lower potency, low ones higher potency. As to `CCCOc1ccc(S(=O)(=O)N2CC[C@@H](N(C)C)C2)cc1-c1nc2c(cnc3n[nH]cc32)c(=O)[nH]1`, half-maximal inhibition in experiment [1] (IC50) required 2.1 nM.

In the case of `CCCOc1ccc(S(=O)(=O)N2CC[C@@H](N(C)C)C2)cc1-c1nc2c(c(NCc3ccc(F)cc3)nc3nn(Cc4ccc(OC)cc4)cc32)c(=O)[nH]1`, the IC50 in experiment [1] was found to be 1.7 nM.

`CCCOc1ccc(S(=O)(=O)N2CC[C@@H](N(C)C)C2)cc1-c1nc(O)c2c(Cl)nc3nn(Cc4ccc(OC)cc4)cc3c2n1`: the Ratio amounted to 130 in experiment [2], 1200 in experiment [3], 17 in experiment [4] and 310 in experiment [5].

In turn, `CCCOc1ccc(S(=O)(=O)N2CC[C@@H](N(C)C)C2)cc1-c1nc2c(c(NCc3ccc(F)cc3)nc3n[nH]cc32)c(=O)[nH]1` gave an IC50 in experiment [1] of 0.31 nM.

For the molecule `CCCOc1ccc(S(=O)(=O)N2CC[C@@H](N(C)C)C2)cc1-c1nc(O)c2c(NCc3ccc(OC)c(Cl)c3)[nH]c3nncc-3c2n1`, the Ratio in experiment [3] was over 10000; in experiment [4], 180.

Turning to `CCCOc1ccc(S(=O)(=O)N2CC[C@@H](N(C)C)C2)cc1-c1nc(O)c2c(NCc3ccc(F)cc3)[nH]c3nncc-3c2n1`, the Ratio is 160 in experiment [4] and over 100000 in experiment [5].

In the case of `CCCOc1ccc(S(=O)(=O)N2CC[C@@H](N(C)C)C2)cc1-c1nc2c(c(Cl)nc3nn(Cc4ccc(OC)cc4)cc32)c(=O)[nH]1`, in experiment [1], the half-maximal inhibitory concentration (IC50) is 13 nM.

As for `CCCOc1ccc(S(=O)(=O)N2CC[C@@H](N(C)C)C2)cc1-c1nc(O)c2c(NCc3ccc(F)cc3)nc3nn(Cc4ccc(OC)cc4)cc3c2n1`, the values for the Ratio in experiment [3], in experiment [4] and in experiment [5] were over 10000, 15 and 2500, respectively.

As to `CCCOc1ccc(S(=O)(=O)N2CC[C@@H](N(C)C)C2)cc1-c1nc(O)c2c[nH]c3nncc-3c2n1`, the Ratio in experiment [2] was 400; in experiment [3], 2000; in experiment [4], 22; in experiment [5], 3200.
